From US11473151B2, “Diagnostic and therapeutic methods for cancer” (Genentech, Inc., priority 2017, dated 2022)

System: mUC patients (IMvigor210)
Assay: Association between mutations (FMOne panel, single genes and pathways) and response to atezolizumab or TMB
Format: in vivo, human
Text: In addition, DNA was extracted from FFPE 10 micron sections from 293 patients and submitted to a Clinical Laboratory Improvement Amendments (CLIA)-certified, New York State-accredited, and College of American Pathologists (CAP)-accredited laboratory (Foundation Medicine, Cambridge, Mass.) for targeted next-generation sequencing (NGS)-based genomic profiling. Adaptor-ligated DNA underwent hybrid capture for all coding exons of 395 cancer-related genes plus select introns from 31 genes frequently rearranged in cancer (FMOne panel).
Captured libraries were sequenced to a median exon coverage depth of >500× (DNA) or 3M unique reads (RNA) using Agilent SURESELECT® v5 kit at 51 Mb on the ILLUMINA® HISEQ® 2500, and resultant sequences were analyzed for base substitutions, small insertions and deletions (indels), copy number alterations (focal amplifications and homozygous deletions), and gene fusions/rearrangements, as previously described (Frampton et al. Nat. Biotechnol. 31:1023-1031, 2013). Frequent germline variants from the 1000 Genomes Project (dbSNP142) were removed. To maximize mutation-detection accuracy (sensitivity and specificity) in impure clinical specimens, the test was previously optimized and validated to detect base substitutions at a ≥5% mutant allele frequency (MAF), indels with a ≥10% MAF with ≥99% accuracy, and fusions occurring within baited introns/exons with >99% sensitivity (Frampton et al. supra). Known confirmed somatic alterations deposited in the Catalog of Somatic Mutations in Cancer (COSMIC v62) are called at allele frequencies ≥1% (Forbes et al. Nucleic Acids Res. 39:D945-D950, 2011).
From the FMOne panel, tumor mutational burden was calculated from the number of short variants in coding regions (substitutions and indels, including synonymous alterations) that were detected. Known and predicted germline alterations as well as known somatic and likely somatic variants are not counted. The mutation burden per Mb is the number of mutations counted divided by the Mb of genomic target territory of the FMOne panel. Unless otherwise indicated, FMOne-based mutation burden was used for all analyses around mutation burden.
For each gene, a patient was called mutant if a known or likely mutation was reported for that gene. For pathway-based analyses, a patient was called mutant in a pathway if any gene within the pathway was reported to have a known or likely mutation. Otherwise, a patient was considered to be non-mutant. A Fisher's Exact Test was used to determine whether the number of mutant patients differed between responders (complete and partial responders) and non-responders (stable and progressive disease). An association between mutation status and mutation burden was tested using a Wilcoxon Rank Sum Test. Single gene p-values were corrected for the number of tests performed using Benjamini and Hochberg adjustment. For pathway-based analyses, nominal p-values are reported.

Substance: atezolizumab: anti-PD-L1 antibody (Genentech), CAS Registry Number 1422185-06-5, also known as MPDL3280A
- estimate (IKBKE mutation status vs response (CR/PR vs. SD/PD)): 0
- estimate (INPP4B mutation status vs response (CR/PR vs. SD/PD)): 0.00E+00
- estimate (IRS2 mutation status vs response (CR/PR vs. SD/PD)): 4.96E−01
- estimate (JAK1 mutation status vs response (CR/PR vs. SD/PD)): 0.00E+00
- estimate (JAK2 mutation status vs response (CR/PR vs. SD/PD)): 3.33E−01
- estimate (JUN mutation status vs response (CR/PR vs. SD/PD)): Inf
- estimate (KDM5A mutation status vs response (CR/PR vs. SD/PD)): Inf
- estimate (KDM5C mutation status vs response (CR/PR vs. SD/PD)): 3.30E−01
- estimate (KDM6A mutation status vs response (CR/PR vs. SD/PD)): 0.5153
- estimate (KDR mutation status vs response (CR/PR vs. SD/PD)): 0
- estimate (KEAP1 mutation status vs response (CR/PR vs. SD/PD)): 0
- estimate (KEL mutation status vs response (CR/PR vs. SD/PD)): 0
- estimate (KIT mutation status vs response (CR/PR vs. SD/PD)): 0.3333
- estimate (KRAS mutation status vs response (CR/PR vs. SD/PD)): 1.346
- estimate (LRP1B mutation status vs response (CR/PR vs. SD/PD)): 0.1555
- estimate (LRP6 mutation status vs response (CR/PR vs. SD/PD)): 0
- estimate (LYN mutation status vs response (CR/PR vs. SD/PD)): Inf
- estimate (LZTR1 mutation status vs response (CR/PR vs. SD/PD)): 0
- estimate (MAGI2 mutation status vs response (CR/PR vs. SD/PD)): Inf
- estimate (MAP2K4 mutation status vs response (CR/PR vs. SD/PD)): Inf
- estimate (MAP3K1 mutation status vs response (CR/PR vs. SD/PD)): 0.3333
- estimate (MAP3K13 mutation status vs response (CR/PR vs. SD/PD)): Inf
- estimate (MCL1 mutation status vs response (CR/PR vs. SD/PD)): 0.8339
- estimate (MDM2 mutation status vs response (CR/PR vs. SD/PD)): 0.4704
- estimate (MDM4 mutation status vs response (CR/PR vs. SD/PD)): Inf
- estimate (MEN1 mutation status vs response (CR/PR vs. SD/PD)): 0
- estimate (MET mutation status vs response (CR/PR vs. SD/PD)): 0
- estimate (MITF mutation status vs response (CR/PR vs. SD/PD)): Inf
- estimate (MLL2 mutation status vs response (CR/PR vs. SD/PD)): 1.185
- estimate (MLL3 mutation status vs response (CR/PR vs. SD/PD)): 0
- estimate (MPL mutation status vs response (CR/PR vs. SD/PD)): 0
- estimate (MSH2 mutation status vs response (CR/PR vs. SD/PD)): 0.6678
- estimate (MSH6 mutation status vs response (CR/PR vs. SD/PD)): 1.346
- estimate (MST1R mutation status vs response (CR/PR vs. SD/PD)): Inf
- estimate (MTOR mutation status vs response (CR/PR vs. SD/PD)): 0.3333
- estimate (MUTYH mutation status vs response (CR/PR vs. SD/PD)): 0.6678
- estimate (MYC mutation status vs response (CR/PR vs. SD/PD)): 1.354
- estimate (MYCL1 mutation status vs response (CR/PR vs. SD/PD)): 0.6605
- estimate (MYCN mutation status vs response (CR/PR vs. SD/PD)): 0.2167
- estimate (MYST3 mutation status vs response (CR/PR vs. SD/PD)): 0.6642
- estimate (NBN mutation status vs response (CR/PR vs. SD/PD)): 0
- estimate (NCOR1 mutation status vs response (CR/PR vs. SD/PD)): 1.179
- estimate (NF1 mutation status vs response (CR/PR vs. SD/PD)): 0.4962
- estimate (NF2 mutation status vs response (CR/PR vs. SD/PD)): 0.3297
- estimate (NFE2L2 mutation status vs response (CR/PR vs. SD/PD)): 0.3333
- estimate (NFKBIA mutation status vs response (CR/PR vs. SD/PD)): Inf
- estimate (NKX2−1 mutation status vs response (CR/PR vs. SD/PD)): Inf
- estimate (NOTCH1 mutation status vs response (CR/PR vs. SD/PD)): 1.005
- estimate (NOTCH2 mutation status vs response (CR/PR vs. SD/PD)): 0.6678
- estimate (NOTCH3 mutation status vs response (CR/PR vs. SD/PD)): Inf
- estimate (NOTCH4 mutation status vs response (CR/PR vs. SD/PD)): 0.6678
- estimate (NRAS mutation status vs response (CR/PR vs. SD/PD)): 0
- estimate (NTRK1 mutation status vs response (CR/PR vs. SD/PD)): 0
- estimate (NTRK3 mutation status vs response (CR/PR vs. SD/PD)): Inf
- estimate (NUP93 mutation status vs response (CR/PR vs. SD/PD)): 0.6678
- estimate (PALB2 mutation status vs response (CR/PR vs. SD/PD)): 0.6678
- estimate (PARK2 mutation status vs response (CR/PR vs. SD/PD)): Inf
- estimate (PARP4 mutation status vs response (CR/PR vs. SD/PD)): Inf
- estimate (PAX5 mutation status vs response (CR/PR vs. SD/PD)): Inf
- estimate (PBRM1 mutation status vs response (CR/PR vs. SD/PD)): 0.1081
- estimate (PDCD1LG2 mutation status vs response (CR/PR vs. SD/PD)): 0.6678
- estimate (PDGFRA mutation status vs response (CR/PR vs. SD/PD)): 0
- estimate (PIK3C2B mutation status vs response (CR/PR vs. SD/PD)): Inf
- estimate (PIK3CA mutation status vs response (CR/PR vs. SD/PD)): 0.7935
- estimate (PIK3CB mutation status vs response (CR/PR vs. SD/PD)): Inf
- estimate (PIK3CG mutation status vs response (CR/PR vs. SD/PD)): 0
- estimate (PIK3R1 mutation status vs response (CR/PR vs. SD/PD)): 0.3297
- estimate (PIK3R2 mutation status vs response (CR/PR vs. SD/PD)): 0
- estimate (PMS2 mutation status vs response (CR/PR vs. SD/PD)): 0
- estimate (POLE mutation status vs response (CR/PR vs. SD/PD)): 0
- estimate (PRKCI mutation status vs response (CR/PR vs. SD/PD)): 0.6678
- estimate (PRSS8 mutation status vs response (CR/PR vs. SD/PD)): 0
- estimate (PTCH2 mutation status vs response (CR/PR vs. SD/PD)): 0
- estimate (PTEN mutation status vs response (CR/PR vs. SD/PD)): 0.3224
- estimate (PTPN11 mutation status vs response (CR/PR vs. SD/PD)): Inf
- estimate (PTPRD mutation status vs response (CR/PR vs. SD/PD)): Inf
- estimate (RAD50 mutation status vs response (CR/PR vs. SD/PD)): Inf
- estimate (RAD51C mutation status vs response (CR/PR vs. SD/PD)): 0
- estimate (RAD51 mutation status vs response (CR/PR vs. SD/PD)): Inf
- estimate (RAF1 mutation status vs response (CR/PR vs. SD/PD)): 0.5846
- estimate (RB1 mutation status vs response (CR/PR vs. SD/PD)): 0.6832
- estimate (RBM10 mutation status vs response (CR/PR vs. SD/PD)): 0.7743
- estimate (REL mutation status vs response (CR/PR vs. SD/PD)): 0
- estimate (RICTOR mutation status vs response (CR/PR vs. SD/PD)): 0.5352
- estimate (RNF43 mutation status vs response (CR/PR vs. SD/PD)): 0
- estimate (ROS1 mutation status vs response (CR/PR vs. SD/PD)): Inf
- estimate (RPA1 mutation status vs response (CR/PR vs. SD/PD)): Inf
- estimate (RPTOR mutation status vs response (CR/PR vs. SD/PD)): Inf
- estimate (RUNX1 mutation status vs response (CR/PR vs. SD/PD)): 0.3333
- estimate (SDHA mutation status vs response (CR/PR vs. SD/PD)): Inf
- estimate (SETD2 mutation status vs response (CR/PR vs. SD/PD)): 1.691
- estimate (SF3B1 mutation status vs response (CR/PR vs. SD/PD)): 0.1646
- estimate (SLIT2 mutation status vs response (CR/PR vs. SD/PD)): Inf
- estimate (SMAD2 mutation status vs response (CR/PR vs. SD/PD)): Inf
- estimate (SMAD3 mutation status vs response (CR/PR vs. SD/PD)): Inf
- estimate (SMAD4 mutation status vs response (CR/PR vs. SD/PD)): Inf
- estimate (SMARCA4 mutation status vs response (CR/PR vs. SD/PD)): 0.548
- estimate (SOX2 mutation status vs response (CR/PR vs. SD/PD)): Inf
- estimate (SOX9 mutation status vs response (CR/PR vs. SD/PD)): Inf
- estimate (SOX10 mutation status vs response (CR/PR vs. SD/PD)): Inf
